pKd: −log10 of the molar value. Where two headings read alike, the source gives them in different places.
Experiments:
COLO 205 = assay: NCI-60 DTP Human Tumour Cell Line Screen; assay type: cell-based; details: NCI-60 screen, 10 μM, colon cancer
BRD2(1) = target: T1, BRD2(1) (Homo sapiens, UniProt P25440); assay: BROMOscan; assay type: binding; details: BROMOscan
T1 construct: T7 phage strains displaying bromodomains; host or cells: T7 phage display in E. coli host derived from BL21

BRD4(1) = target: T2, BRD4(1) (Homo sapiens, UniProt O60885); assay: BROMOscan; assay type: binding; details: BROMOscan, n=2; read-out: dissociation constant (Kd) in complex with BRD4-BD1
T2 construct: T7 phage strains displaying bromodomains; host or cells: T7 phage display in E. coli host derived from BL21

OVCAR-5 = assay: NCI-60 DTP Human Tumour Cell Line Screen; assay type: cell-based; details: NCI-60 screen, 10 μM, ovarian cancer
mice (male and female) = assay: Toxicity screening, single dose; assay type: in vivo
Excerpt: […]. All studied organs and tissues had the structure characteristics and relative body weights for normal animals.

HL-60(TB) = assay: NCI-60 DTP Human Tumour Cell Line Screen; assay type: cell-based; details: NCI-60 screen, 10 μM, leukaemia panel
BRD4-BD1 = target: T3, BRD4-BD1 (Homo sapiens, UniProt O60885); assay: Isothermal titration calorimetry (ITC), dissociation constant; assay type: binding
T3 construct: BRD4-BD1 was expressed and purified as described previously; made in house
Method: Data were obtained in discrete titration experiments with an injection volume of 12 μl per injection. Subsequently, the heats per injection were calculated as integrals and after normalization against the molar concentrations plotted against the molar ratio as implemented in Microcal Origin. Finally, data were fitted according to a single set of sites binding model with
[formula] as function to calculate the overall sum of heat of the titration and with
[formula] […] A correction term was included to compensate for displacement of volume of the sample cell in the course of subsequent injections according to the manufacturer's manual “ITC Data Analysis in Origin” (Microcal).
The dissociation constant has molar units which correspond to the concentration of ligand at which the binding site on a particular protein is half occupied, i.e. the concentration of the ligand at which the concentration of protein with ligand bound equals the concentration of protein with no ligand bound. The smaller the dissociation constant, the higher the affinity between ligand and protein.

BET bromodomain family = system: T4, BET bromodomain family; assay: BROMOscan selectivity profile; assay type: binding, human
T4 construct: other: BROMOscan
Method: (§1) Bromodomain profiling was carried out on the basis of BROMOscan™. This platform accounted for the indirect determination of the dissociation constants between 19 bromodomains and the compound of formula (4), by binding competition against a reference immobilized ligand.
(§2) The target selectivity of the compound of formula (4) within the human BRD family was assessed by means of BROMOscan™. The binding of the compound to at least one representative protein of each BRD family was assessed.
Sphere size and colour indicate the binding affinity of the compound of formula (4) to the specific BRDs, as observed in the BROMOscan™ assay. Additionally, binding to PB1-BD4 was assessed by local ITC measurements. The dissociation constant (Kd) corresponding to each BRD in complex with the compound of formula (4) is indicated. […]

BRD3(1) = target: T5, BRD3(1) (Homo sapiens, UniProt Q15059); assay: BROMOscan; assay type: binding; details: BROMOscan
T5 construct: T7 phage strains displaying bromodomains; host or cells: T7 phage display in E. coli host derived from BL21
T5 sequence (Q15059 34-140 limits assumed): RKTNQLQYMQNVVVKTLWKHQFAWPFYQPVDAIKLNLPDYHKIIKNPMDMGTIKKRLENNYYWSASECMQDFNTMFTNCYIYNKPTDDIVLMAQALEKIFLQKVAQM

BRD3(2) = target: T6, BRD3(2) (Homo sapiens, UniProt Q15059); assay: BROMOscan; assay type: binding; details: BROMOscan
T6 construct: T7 phage strains displaying bromodomains; host or cells: T7 phage display in E. coli host derived from BL21
T6 sequence (Q15059 306-415 limits assumed): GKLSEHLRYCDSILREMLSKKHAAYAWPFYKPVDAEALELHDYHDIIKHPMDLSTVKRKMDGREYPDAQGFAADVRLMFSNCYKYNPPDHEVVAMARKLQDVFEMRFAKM

leukaemia cell lines = assay: NCI-60 DTP Human Tumour Cell Line Screen, leukaemia panel; assay type: cell-based; details: NCI-60 screen, 10 μM
SR = assay: NCI-60 DTP Human Tumour Cell Line Screen; assay type: cell-based; details: NCI-60 screen, 10 μM, leukaemia panel
CREBBP = target: T7, CREBBP (Homo sapiens, UniProt Q92793); assay: BROMOscan; assay type: binding; details: BROMOscan; read-out: binding affinity to CREBBP
T7 construct: T7 phage strains displaying bromodomains; host or cells: T7 phage display in E. coli host derived from BL21
T7 sequence (Q92793 1085-1192 limits assumed): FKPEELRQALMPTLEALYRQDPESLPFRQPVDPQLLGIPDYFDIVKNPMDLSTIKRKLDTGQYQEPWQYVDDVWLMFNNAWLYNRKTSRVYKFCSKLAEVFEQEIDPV
Method: as §1, §2
(§3) Bromodomain profiling was carried out on the basis of BROMOscan™, which is a leading platform for identifying small molecule bromodomain inhibitors. BROMOscan™ employs a proprietary ligand binding site-directed competition assay to quantitatively measure interactions between test compounds and bromodomains. The reliable assay panel is suitable for high-throughput screening and delivers quantitative ligand binding data.
(§4) Compounds that bind the bromodomain prevent its binding to the immobilized ligand thus reducing the amount of protein captured. […] Hits are identified by measuring the amount of bromodomain captured in test versus control samples.
(§5) Bromodomain assays: T7 phage strains displaying bromodomains were grown in parallel in 24-well blocks in an E. coli host derived from the BL21 strain. E. coli were grown to log-phase and infected with T7 phage from a frozen stock (multiplicity of infection=0.4) and incubated with shaking at 32° C. until lysis (90-150 minutes). The lysates were centrifuged (5,000×g) and filtered (0.2 μm) to remove cell debris. […] The bound beads were blocked with excess biotin and washed with blocking buffer (SeaBlock (Pierce), 1% BSA, 0.05% Tween 20, 1 mM DTT) to remove unbound ligand and to reduce non-specific phage binding. […] Test compounds were prepared as 1000× stocks in 100% DMSO and subsequently diluted 1:25 in mono ethylene glycol (MEG). The compounds were then diluted directly into the assays such that the final concentrations of DMSO and MEG were 0.1% and 2.4%, respectively. All reactions were performed in polypropylene 384-well plates in a final volume of 0.02 ml. […] The bromodomain concentration in the eluates was measured by qPCR.
(§6) The % Ctrl values were determined as follows: % Ctrl=[(test compound signal-positive control signal)/(negative control signal-positive control signal)]×100
(§7) For 7 bromodomains other than the bromodomains from the BET family dissociation constants Kd were determined and the results are given in Table 3.

EP300 = target: T8, EP300 (Homo sapiens, UniProt Q09472); assay: BROMOscan; assay type: binding; details: BROMOscan; read-out: binding affinity to EP300
T8 construct: T7 phage strains displaying bromodomains; host or cells: T7 phage display in E. coli host derived from BL21
T8 sequence (Q09472 1049-1156 limits assumed): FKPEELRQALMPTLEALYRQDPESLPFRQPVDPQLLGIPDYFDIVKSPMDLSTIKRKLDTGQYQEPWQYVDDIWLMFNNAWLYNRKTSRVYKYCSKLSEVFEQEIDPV
Method: as §1, §2, §3, §4, §5, §6, §7

HeLa = assay: Antiproliferative activity, HeLa cells; assay type: cell-based; details: at a high concentration of 50 μM
Method: BRD4 is a validated therapeutic target in NUT midline carcinoma and in acute myeloid and MLL-fusion leukaemia. The proliferation inhibition potential of the virtual screening hits in HL-60 and HeLa cell lines for the compound of formula (4) was assessed.

T1 sequence (P25440 74-180 limits assumed): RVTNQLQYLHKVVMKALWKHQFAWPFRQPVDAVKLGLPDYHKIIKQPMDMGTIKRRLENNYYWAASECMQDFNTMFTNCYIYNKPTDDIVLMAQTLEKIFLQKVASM

Q: For `CCc1c(C(=O)Nc2cc(S(=O)(=O)N(CC)CC)ccc2O)[nH]c(C)c1C(C)=O` [compound of formula (4)], which “sensitivity in the cell line screen (growth inhibition)” value (from here on “sensitivity … (growth inhibition)”) (COLO 205) is on record?
A: most resistant

Q: What about the “affinity to BRD2-BD1” value (BRD2(1)) of the same compound?
A: nM range

Q: And the pKd (BRD4(1))?
A: 6.80

Q: And the “sensitivity … (growth inhibition)” value (OVCAR-5)?
A: most resistant

Q: What about the LD50 (mice (male and female); mice (male and female), single dose) of the same compound?
A: higher than 2000 mg/kg of body weight

Q: And the signs of toxicity (mice (male and female); mouse, in vivo, 2000 mg/kg)?
A: did not induce any signs of toxicity

Q: And the “sensitivity … (growth inhibition)” value (HL-60(TB))?
A: most sensitive

Q: What about the pKd (BRD4-BD1; ITC, 25° C., read-out: dissociation constant Kd for BRD4-BD1) of the same compound?
A: 6.52

Q: And the Kd (BRD4-BD1; Table 1, target not given, values of formula (4) and (3) match ITC Kd for BRD4-BD1, read-out: pKd (converted))?
A: 316 nM

Q: And the “binding specificity within the human BRD family” value (BET bromodomain family)?
A: bind specifically to the BET bromodomain family

Q: What about the “affinity to BRD3 (both BRDs), BD1” value (BRD3(1)) of the same compound?
A: nM range

Q: What about the “affinity to BRD3 (both BRDs), BD2” value (BRD3(2)) of the same compound?
A: nM range

Q: What about the “activity against the leukaemia cell lines” value (leukaemia cell lines) of the same compound?
A: potent and selective activity

Q: And the “sensitivity … (growth inhibition)” value (SR)?
A: most sensitive

Q: And the pKd (CREBBP)?
A: ~5.46

Q: What about the pKd (EP300) of the same compound?
A: ~5.46

Q: And the “antiproliferative activity against HeLa” value (HeLa)?
A: no antiproliferative activity
